{
  "source": "patent US11965039B2",
  "about": "“Compstatin analogues and their medical uses” (priority 2018, dated 2024)",
  "key": {"[1]": {"system": "classical complement pathway", "experiment": "In vitro haemolysis assay (inhibition of classical complement pathway)", "assay_type": "cell-based, human", "conditions": "human serum, sensitized sheep red blood cells; Table 3, given as upper bounds; read-out: IC50, inhibition of hemolysis", "in_short": "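Compound dilutions preincubated 15 min at room temperature with diluted human serum (titrated per batch for 70-90% maximal haemolysis), then antibody-sensitized sheep RBC (10^7/well) added for 30 min at 37 °C in Tris/casein buffer, pH 7.4. Stopped with EDTA; haemolysis read at 405 nm; IC50 by 4PL fit.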"}, "[2]": {"experiment": "Solubility test at 10 mg/mL (visual inspection and light scattering)", "assay_type": "physicochemical", "conditions": "for Solubility, Condition 1: Acetate pH 4; for Solubility, Condition 2: Acetate pH 5; for Solubility, Condition 3: Phosphate pH 6; for Solubility, Condition 4: Phosphate pH 7; for Solubility, Condition 5: Phosphate pH 7.5"}},
  "note": "Positions of bridges follow the written chain, without caps; N, C: chain ends. Non-standard residues stand in square brackets, D forms with d. Residues, ends and D or L forms follow the SMILES beside them. Trp(1-Me) = Cn1cc(C[C@H](N)C(=O)O)c2ccccc21; Sar = CNCC(=O)O",
  "data": [
    {"smiles": "CC[C@H](C)[C@@H]1NC(=O)[C@@H](NC(=O)[C@H](Cc2ccccc2)NC(=O)[C@H](CCC(=O)O)NC(=O)[C@H](CO)NC(C)=O)CSSC[C@@H](C(=O)N(C)CC(=O)NCC(=O)N[C@@H](C)C(=O)N[C@@H](CCC(=O)O)C(=O)N[C@@H](CO)C(N)=O)NC(=O)[C@H](CCCNC(=N)N)NC(=O)[C@H](Cc2c[nH]cn2)NC(=O)[C@H](CCC(=O)O)NC(=O)CNC(=O)[C@H](Cc2c[nH]c3ccccc23)NC(=O)[C@H](CC(=O)O)NC(=O)[C@H](CCC(N)=O)NC(=O)[C@H](Cc2cn(C)c3ccccc23)NC1=O", "note": "[Compound 74] (Ac-SEFCI[Trp(1-Me)]QDWGEHRC[Sar]GAES-NH2; disulfide 4-14)", "values": [
      {"measurement": "IC50", "setting": "[1]", "result": "< 100", "unit": "nM"},
      {"measurement": "Solubility, Condition 1", "setting": "[2]", "result": "− (“−” denotes lack of solubility at the given condition, as UV absorbance at 340 nm exceeds 0.1 AU and/or it is visibly turbid or contains particles)"},
      {"measurement": "Solubility, Condition 2", "setting": "[2]", "result": "+ (“+” denotes solubility at the given condition, as determined by UV absorbance being less than 0.1 AU at 340 nm and the sample being clear when manually inspected)"},
      {"measurement": "Solubility, Condition 3", "setting": "[2]", "result": "+ (“+” denotes solubility at the given condition, as determined by UV absorbance being less than 0.1 AU at 340 nm and the sample being clear when manually inspected)"},
      {"measurement": "Solubility, Condition 4", "setting": "[2]", "result": "+ (“+” denotes solubility at the given condition, as determined by UV absorbance being less than 0.1 AU at 340 nm and the sample being clear when manually inspected)"},
      {"measurement": "Solubility, Condition 5", "setting": "[2]", "result": "+ (“+” denotes solubility at the given condition, as determined by UV absorbance being less than 0.1 AU at 340 nm and the sample being clear when manually inspected)"}
    ]},
    {"smiles": "CC[C@H](C)[C@@H]1NC(=O)[C@@H](NC(=O)[C@H](Cc2ccccc2)NC(=O)[C@H](CCC(=O)O)NC(=O)[C@H](CO)NC(C)=O)CSSC[C@@H](C(=O)N(C)CC(=O)N[C@@H](CCC(=O)O)C(=O)N[C@@H](C)C(N)=O)NC(=O)[C@H](CCCNC(=N)N)NC(=O)[C@H](Cc2c[nH]cn2)NC(=O)[C@H](CCC(=O)O)NC(=O)CN(C)C(=O)[C@H](Cc2c[nH]c3ccccc23)NC(=O)[C@H](CC(=O)O)NC(=O)[C@H](CCC(N)=O)NC(=O)[C@H](Cc2cn(C)c3ccccc23)NC1=O", "note": "[Compound 76, Ac-SEFC(1)I[1-Me-Trp]QDW[Sar]EHRC(1)[Sar]EA-NH2] (Ac-SEFCI[Trp(1-Me)]QDW[Sar]EHRC[Sar]EA-NH2; disulfide 4-14)", "values": [
      {"measurement": "IC50", "setting": "[1]", "result": "< 100", "unit": "nM"},
      {"measurement": "Solubility, Condition 1", "setting": "[2]", "result": "− (“−” denotes lack of solubility at the given condition, as UV absorbance at 340 nm exceeds 0.1 AU and/or it is visibly turbid or contains particles)"},
      {"measurement": "Solubility, Condition 2", "setting": "[2]", "result": "− (“−” denotes lack of solubility at the given condition, as UV absorbance at 340 nm exceeds 0.1 AU and/or it is visibly turbid or contains particles)"},
      {"measurement": "Solubility, Condition 3", "setting": "[2]", "result": "+ (“+” denotes solubility at the given condition, as determined by UV absorbance being less than 0.1 AU at 340 nm and the sample being clear when manually inspected)"},
      {"measurement": "Solubility, Condition 4", "setting": "[2]", "result": "+ (“+” denotes solubility at the given condition, as determined by UV absorbance being less than 0.1 AU at 340 nm and the sample being clear when manually inspected)"},
      {"measurement": "Solubility, Condition 5", "setting": "[2]", "result": "+ (“+” denotes solubility at the given condition, as determined by UV absorbance being less than 0.1 AU at 340 nm and the sample being clear when manually inspected)"}
    ]},
    {"smiles": "CC[C@H](C)[C@@H]1NC(=O)[C@@H](NC(=O)[C@H](Cc2ccccc2)NC(=O)[C@H](CCC(=O)O)NC(=O)[C@H](CO)NC(C)=O)CSSC[C@@H](C(=O)N[C@H](C(=O)N[C@@H](CCC(=O)O)C(=O)N[C@@H](C)C(N)=O)[C@@H](C)O)NC(=O)[C@H](CCCNC(=N)N)NC(=O)[C@H](Cc2c[nH]cn2)NC(=O)[C@H](CCC(=O)O)NC(=O)CN(C)C(=O)[C@H](Cc2c[nH]c3ccccc23)NC(=O)[C@H](CC(=O)O)NC(=O)[C@H](CCC(N)=O)NC(=O)[C@H](Cc2cn(C)c3ccccc23)NC1=O", "note": "[Compound 77, Ac-SEFC(1)I[1-Me-Trp]QDW[Sar]EHRC(1)TEA-NH2] (Ac-SEFCI[Trp(1-Me)]QDW[Sar]EHRCTEA-NH2; disulfide 4-14)", "values": [
      {"measurement": "IC50", "setting": "[1]", "result": "< 100", "unit": "nM"},
      {"measurement": "Solubility, Condition 1", "setting": "[2]", "result": "− (“−” denotes lack of solubility at the given condition, as UV absorbance at 340 nm exceeds 0.1 AU and/or it is visibly turbid or contains particles)"},
      {"measurement": "Solubility, Condition 2", "setting": "[2]", "result": "− (“−” denotes lack of solubility at the given condition, as UV absorbance at 340 nm exceeds 0.1 AU and/or it is visibly turbid or contains particles)"},
      {"measurement": "Solubility, Condition 3", "setting": "[2]", "result": "+ (“+” denotes solubility at the given condition, as determined by UV absorbance being less than 0.1 AU at 340 nm and the sample being clear when manually inspected)"},
      {"measurement": "Solubility, Condition 4", "setting": "[2]", "result": "+ (“+” denotes solubility at the given condition, as determined by UV absorbance being less than 0.1 AU at 340 nm and the sample being clear when manually inspected)"},
      {"measurement": "Solubility, Condition 5", "setting": "[2]", "result": "+ (“+” denotes solubility at the given condition, as determined by UV absorbance being less than 0.1 AU at 340 nm and the sample being clear when manually inspected)"}
    ]},
    {"smiles": "CC[C@H](C)[C@@H]1NC(=O)[C@@H](NC(=O)[C@H](Cc2ccccc2)NC(=O)[C@H](CCC(=O)O)NC(=O)[C@H](CO)NC(C)=O)CSSC[C@@H](C(=O)N(C)CC(=O)N[C@@H](CCC(=O)O)C(N)=O)NC(=O)[C@H](CCCNC(=N)N)NC(=O)[C@H](Cc2c[nH]cn2)NC(=O)[C@H](CCC(=O)O)NC(=O)CNC(=O)[C@H](Cc2c[nH]c3ccccc23)NC(=O)[C@H](CC(=O)O)NC(=O)[C@H](CCC(N)=O)NC(=O)[C@H](Cc2cn(C)c3ccccc23)NC1=O", "note": "[Compound 78] (Ac-SEFCI[Trp(1-Me)]QDWGEHRC[Sar]E-NH2; disulfide 4-14)", "values": [
      {"measurement": "IC50", "setting": "[1]", "result": "< 100", "unit": "nM"},
      {"measurement": "Solubility, Condition 1", "setting": "[2]", "result": "− (“−” denotes lack of solubility at the given condition, as UV absorbance at 340 nm exceeds 0.1 AU and/or it is visibly turbid or contains particles)"},
      {"measurement": "Solubility, Condition 2", "setting": "[2]", "result": "− (“−” denotes lack of solubility at the given condition, as UV absorbance at 340 nm exceeds 0.1 AU and/or it is visibly turbid or contains particles)"},
      {"measurement": "Solubility, Condition 3", "setting": "[2]", "result": "+ (“+” denotes solubility at the given condition, as determined by UV absorbance being less than 0.1 AU at 340 nm and the sample being clear when manually inspected)"},
      {"measurement": "Solubility, Condition 4", "setting": "[2]", "result": "+ (“+” denotes solubility at the given condition, as determined by UV absorbance being less than 0.1 AU at 340 nm and the sample being clear when manually inspected)"},
      {"measurement": "Solubility, Condition 5", "setting": "[2]", "result": "+ (“+” denotes solubility at the given condition, as determined by UV absorbance being less than 0.1 AU at 340 nm and the sample being clear when manually inspected)"}
    ]},
    {"smiles": "CC[C@H](C)[C@@H]1NC(=O)[C@@H](NC(=O)[C@H](Cc2ccccc2)NC(=O)[C@H](CCC(=O)O)NC(=O)[C@H](CO)NC(C)=O)CSSC[C@@H](C(=O)N(C)CC(=O)N[C@@H](CCC(=O)O)C(N)=O)NC(=O)[C@H](CCCNC(=N)N)NC(=O)[C@H](Cc2c[nH]cn2)NC(=O)[C@H](CCC(=O)O)NC(=O)CN(C)C(=O)[C@H](Cc2c[nH]c3ccccc23)NC(=O)[C@H](CC(=O)O)NC(=O)[C@H](CCC(N)=O)NC(=O)[C@H](Cc2cn(C)c3ccccc23)NC1=O", "note": "[Compound 79, Ac-SEFC(1)I[1-Me-Trp]QDW[Sar]EHRC(1)[Sar]E-NH2] (Ac-SEFCI[Trp(1-Me)]QDW[Sar]EHRC[Sar]E-NH2; disulfide 4-14)", "values": [
      {"measurement": "IC50", "setting": "[1]", "result": "< 100", "unit": "nM"},
      {"measurement": "Solubility, Condition 1", "setting": "[2]", "result": "− (“−” denotes lack of solubility at the given condition, as UV absorbance at 340 nm exceeds 0.1 AU and/or it is visibly turbid or contains particles)"},
      {"measurement": "Solubility, Condition 2", "setting": "[2]", "result": "− (“−” denotes lack of solubility at the given condition, as UV absorbance at 340 nm exceeds 0.1 AU and/or it is visibly turbid or contains particles)"},
      {"measurement": "Solubility, Condition 3", "setting": "[2]", "result": "+ (“+” denotes solubility at the given condition, as determined by UV absorbance being less than 0.1 AU at 340 nm and the sample being clear when manually inspected)"},
      {"measurement": "Solubility, Condition 4", "setting": "[2]", "result": "+ (“+” denotes solubility at the given condition, as determined by UV absorbance being less than 0.1 AU at 340 nm and the sample being clear when manually inspected)"},
      {"measurement": "Solubility, Condition 5", "setting": "[2]", "result": "+ (“+” denotes solubility at the given condition, as determined by UV absorbance being less than 0.1 AU at 340 nm and the sample being clear when manually inspected)"}
    ]},
    {"smiles": "CC[C@H](C)[C@@H]1NC(=O)[C@@H](NC(=O)[C@H](Cc2ccccc2)NC(=O)[C@H](CCC(=O)O)NC(C)=O)CSSC[C@@H](C(=O)N(C)CC(=O)N[C@@H](CCC(=O)O)C(=O)N[C@@H](C)C(N)=O)NC(=O)[C@H](CCCNC(=N)N)NC(=O)[C@H](Cc2c[nH]cn2)NC(=O)[C@H](CCC(=O)O)NC(=O)CNC(=O)[C@H](Cc2c[nH]c3ccccc23)NC(=O)[C@H](CC(=O)O)NC(=O)[C@H](CCC(N)=O)NC(=O)[C@H](Cc2cn(C)c3ccccc23)NC1=O", "note": "[Compound 80] (Ac-EFCI[Trp(1-Me)]QDWGEHRC[Sar]EA-NH2; disulfide 3-13)", "values": [
      {"measurement": "IC50", "setting": "[1]", "result": "< 100", "unit": "nM"},
      {"measurement": "Solubility, Condition 1", "setting": "[2]", "result": "− (“−” denotes lack of solubility at the given condition, as UV absorbance at 340 nm exceeds 0.1 AU and/or it is visibly turbid or contains particles)"},
      {"measurement": "Solubility, Condition 2", "setting": "[2]", "result": "− (“−” denotes lack of solubility at the given condition, as UV absorbance at 340 nm exceeds 0.1 AU and/or it is visibly turbid or contains particles)"},
      {"measurement": "Solubility, Condition 3", "setting": "[2]", "result": "+ (“+” denotes solubility at the given condition, as determined by UV absorbance being less than 0.1 AU at 340 nm and the sample being clear when manually inspected)"},
      {"measurement": "Solubility, Condition 4", "setting": "[2]", "result": "+ (“+” denotes solubility at the given condition, as determined by UV absorbance being less than 0.1 AU at 340 nm and the sample being clear when manually inspected)"},
      {"measurement": "Solubility, Condition 5", "setting": "[2]", "result": "+ (“+” denotes solubility at the given condition, as determined by UV absorbance being less than 0.1 AU at 340 nm and the sample being clear when manually inspected)"}
    ]}
  ]
}
